{
  "source": "patent US7294635B2",
  "about": "(Portola Pharmaceuticals, Inc., priority 2003, dated 2007)",
  "data": [
    {"test_system": "ADP-induced human platelet aggregation", "assay": "Inhibition of ADP-mediated platelet aggregation in vitro using platelet-rich plasma (PRP assay)", "type": "cell-based", "conditions": "5 min; human platelet-rich plasma, 2 μM ADP, 96-well microtiter, OD 650 nm at 5 min; read-out: Activity in the PRP assay", "protocol": "This Example Provides an Assay for the Inhibition of ADP-Mediated Platelet Aggregation In Vitro Using Platelet-Rich Plasma (PRP)\nPlatelet-rich plasma (PRP) is prepared by centrifugation at 160×g for 20 minutes at room temperature. PRP is collected, and the platelet concentration is determined using a Coulter counter or hemocytometer (platelet concentration should be 2-4×10^8 platelets per mL).\nInhibition of ADP-dependent aggregation is preferably determined in 96-well flat-bottom microtiter plates using a microtiter plate shaker and plate reader similar to the procedure described by Frantantoni et al., Am. J. Clin. Pathol. […] All steps are performed at room temperature. The total reaction volume of 0.2 mL/well includes: PRP (˜6×10^7 total platelets in the presence of plasma), serial dilutions of test compounds (buffer for control wells) in 0.6% DMSO. After about 5 minutes preincubation at room temperature, ADP is added to a final concentration of 2 μM which induces submaximal aggregation. Buffer is added instead of ADP to one set of control wells (ADP-control). The OD of the samples is then determined at 650 nm using a microtiter plate reader (Softmax, Molecular Devices, Menlo Park, Calif.) resulting in the 0 minute reading. The plates are then agitated for 5 min on a microtiter plate shaker and the 5 minute reading is obtained in the plate reader. Aggregation is calculated from the decrease of OD at 650 nm at t=5 minutes compared to t=0 minutes and is expressed as % of the decrease in the ADP control samples after correcting for changes in the unaggregated control samples.", "units": {"IC50": "µM"}, "values": [
      {"smiles": "CNc1cc2ccn(-c3cnc(NC(=O)NS(=O)(=O)c4ccc(Cl)s4)c(C)c3)c(=O)c2cc1F", "note": "[Example 60, 5-chloro-N-[({5-[7-fluoro-6-(methylamino)-1-oxoisoquinolin-2(1H)-yl]-3-methylpyridin-2-yl}amino)carbonyl]thiophene-2-sulfonamide]", "IC50": "< 10"},
      {"smiles": "CNc1cc2ccn(-c3cnc(NC(=O)NS(=O)(=O)c4ccc(Cl)s4)nc3)c(=O)c2cc1F", "note": "[Example 61, 5-chloro-N-[({5-[7-fluoro-6-(methylamino)-1-oxoisoquinolin-2(1H)-yl]pyrimidin-2-yl}amino)carbonyl]thiophene-2-sulfonamide]", "IC50": "< 10"},
      {"smiles": "CNc1cc2ccn(-c3ccc(NC(=O)NS(=O)(=O)c4ccc(Cl)s4)cc3COC(C)=O)c(=O)c2cc1F", "note": "[Example 62, 5-[({[(5-chlorothien-2-yl)sulfonyl]amino}carbonyl)amino]-2-[7-fluoro-6-(methylamino)-1-oxoisoquinolin-2(1H)-yl]benzyl acetate]", "IC50": "10 to 30"},
      {"smiles": "CNc1cc2ccn(-c3ccc(NC(=O)NS(=O)(=O)c4ccc(Cl)s4)cc3CO)c(=O)c2cc1F", "note": "[Example 63, 5-chloro-N-({[4-[7-fluoro-6-(methylamino)-1-oxoisoquinolin-2(1H)-yl]-3-(hydroxymethyl)phenyl]amino}carbonyl)thiophene-2-sulfonamide]", "IC50": "< 10"},
      {"smiles": "CCOC(=O)c1cc(NC(=O)NS(=O)(=O)c2ccc(Cl)s2)ccc1-n1ccc2cc(NC)c(F)cc2c1=O", "note": "[Example 65, ethyl 5-[({[(5-chlorothien-2-yl)sulfonyl]amino}carbonyl)amino]-2-[7-fluoro-6-(methylamino)-1-oxoisoquinolin-2(1H)-yl]benzoate]", "IC50": "10 to 30"},
      {"smiles": "CNc1cc2ccn(-c3ccc(NC(=O)NS(=O)(=O)c4ccc(Cl)s4)cc3C#N)c(=O)c2cc1F", "note": "[Example 67, 5-chloro-N-[({3-cyano-4-[7-fluoro-6-(methylamino)-1-oxoisoquinolin-2(1H)-yl]phenyl}amino)carbonyl]thiophene-2-sulfonamide]", "IC50": "10 to 30"},
      {"smiles": "CNc1cc2ccn(-c3ccc(NC(=O)NS(=O)(=O)c4ccc(Cl)s4)cc3C(N)=O)c(=O)c2cc1F", "note": "[Example 68, 5-[({[(5-chlorothien-2-yl)sulfonyl]amino}carbonyl)amino]-2-[7-fluoro-6-(methylamino)-1-oxoisoquinolin-2(1H)-yl]benzamide]", "IC50": "10 to 30"},
      {"smiles": "CNc1cc2ccn(-c3ccc(NC(=O)NS(=O)(=O)c4ccc(Cl)s4)cc3C(C)=O)c(=O)c2cc1F", "note": "[Example 70, N-[({3-acetyl-4-[7-fluoro-6-(methylamino)-1-oxoisoquinolin-2(1H)-yl]phenyl}amino)carbonyl]-5-chlorothiophene-2-sulfonamide]", "IC50": "10 to 30"},
      {"smiles": "CCc1cc(NC(=O)NS(=O)(=O)c2ccc(Cl)s2)ccc1-n1ccc2cc(NC)c(F)cc2c1=O", "note": "[Example 73, 5-chloro-N-[({3-ethyl-4-[7-fluoro-6-(methylamino)-1-oxoisoquinolin-2(1H)-yl]phenyl}amino)carbonyl]thiophene-2-sulfonamide]", "IC50": "10 to 30"},
      {"smiles": "CNc1cc2ccn(-c3ccc(NC(=O)NS(=O)(=O)c4ccc(Cl)s4)cc3C(C)O)c(=O)c2cc1F", "note": "(stereo not drawn) [Example 74, 5-chloro-N-({[4-[7-fluoro-6-(methylamino)-1-oxoisoquinolin-2(1H)-yl]-3-(1-hydroxyethyl)phenyl]amino}carbonyl)thiophene-2-sulfonamide]", "IC50": "> 30"},
      {"smiles": "CNc1cc2ccn(-c3ccc(NC(=O)NS(=O)(=O)c4ccc(Cl)s4)c(OC)c3)c(=O)c2cc1F", "note": "[Example 75, 5-chloro-N-[({4-[7-fluoro-6-(methylamino)-1-oxoisoquinolin-2(1H)-yl]-2-methoxyphenyl}amino)carbonyl]thiophene-2-sulfonamide]", "IC50": "< 10"},
      {"smiles": "CNc1cc2ccn(-c3ccc(NC(=O)NS(=O)(=O)c4ccc(Cl)s4)c(OCOC)c3)c(=O)c2cc1F", "note": "[Example 76, 5-chloro-N-({[4-[7-fluoro-6-(methylamino)-1-oxoisoquinolin-2(1H)-yl]-2-(methoxymethoxy)phenyl]amino}carbonyl)thiophene-2-sulfonamide]", "IC50": "< 10"},
      {"smiles": "CNc1cc2ccn(-c3ccc(NC(=O)NS(=O)(=O)c4ccc(Cl)s4)c(O)c3)c(=O)c2cc1F", "note": "[Example 77, 5-chloro-N-[({4-[7-fluoro-6-(methylamino)-1-oxoisoquinolin-2(1H)-yl]-2-hydroxyphenyl}amino)carbonyl]thiophene-2-sulfonamide]", "IC50": "< 10"},
      {"smiles": "CNc1cc2ccn(-c3ccc(NC(=O)NS(=O)(=O)c4ccc(Cl)s4)c(OCc4ccccc4)c3)c(=O)c2cc1F", "note": "[Example 79, N-[({2-(benzyloxy)-4-[7-fluoro-6-(methylamino)-1-oxoisoquinolin-2(1H)-yl]phenyl}amino)carbonyl]-5-chlorothiophene-2-sulfonamide]", "IC50": "> 30"},
      {"smiles": "CCCCNc1cc(-n2ccc3cc(NC)c(F)cc3c2=O)ccc1NC(=O)NS(=O)(=O)c1ccc(Cl)s1", "note": "[Example 80, N-[({2-(butylamino)-4-[7-fluoro-6-(methylamino)-1-oxoisoquinolin-2(1H)-yl]phenyl}amino)carbonyl]-5-chlorothiophene-2-sulfonamide]", "IC50": "> 30"},
      {"smiles": "CCc1cc(-n2ccc3cc(NC)c(F)cc3c2=O)ccc1NC(=O)NS(=O)(=O)c1ccc(Cl)s1", "note": "[Example 81, 5-chloro-N-[({2-ethyl-4-[7-fluoro-6-(methylamino)-1-oxoisoquinolin-2(1H)-yl]phenyl}amino)carbonyl]thiophene-2-sulfonamide]", "IC50": "< 10"},
      {"smiles": "CNc1cc2ccn(-c3ccc(NC(=O)NS(=O)(=O)c4ccc(Cl)s4)c(OCCOC(C)=O)c3)c(=O)c2cc1F", "note": "[Example 82, 2-{2-[({[(5-chlorothien-2-yl)sulfonyl]amino}carbonyl)amino]-5-[7-fluoro-6-(methylamino)-1-oxoisoquinolin-2(1H)-yl]phenoxy}ethyl acetate]", "IC50": "10 to 30"},
      {"smiles": "CNc1cc2ccn(-c3ccc(NC(=O)NS(=O)(=O)c4ccc(Cl)s4)c(OCCO)c3)c(=O)c2cc1F", "note": "[Example 83, 5-chloro-N-({[4-[7-fluoro-6-(methylamino)-1-oxoisoquinolin-2(1H)-yl]-2-(2-hydroxyethoxy)phenyl]amino}carbonyl)thiophene-2-sulfonamide]", "IC50": "< 10"},
      {"smiles": "CNc1cc2ccn(-c3ccc(NC(=O)NS(=O)(=O)c4ccc(Cl)s4)c(OC(C)C)c3)c(=O)c2cc1F", "note": "[Example 84, 5-chloro-N-[({4-[7-fluoro-6-(methylamino)-1-oxoisoquinolin-2(1H)-yl]-2-isopropoxyphenyl}amino)carbonyl]thiophene-2-sulfonamide]", "IC50": "10 to 30"},
      {"smiles": "CNc1cc2ccn(-c3ccc(NC(=O)NS(=O)(=O)c4ccc(Cl)s4)c(C(F)F)c3)c(=O)c2cc1F", "note": "[Example 85, 5-chloro-N-[({2-(difluoromethyl)-4-[7-fluoro-6-(methylamino)-1-oxoisoquinolin-2(1H)-yl]phenyl}amino)carbonyl]thiophene-2-sulfonamide]", "IC50": "< 10"},
      {"smiles": "CNc1cc2ccn(-c3ccc(NC(=O)NS(=O)(=O)c4ccc(Cl)s4)c(OCC4CC4)c3)c(=O)c2cc1F", "note": "[Example 86, 5-chloro-N-[({2-(cyclopropylmethoxy)-4-[7-fluoro-6-(methylamino)-1-oxoisoquinolin-2(1H)-yl]phenyl}amino)carbonyl]thiophene-2-sulfonamide]", "IC50": "< 10"},
      {"smiles": "CNc1cc2ccn(-c3ccc(NC(=O)NS(=O)(=O)c4ccc(Cl)s4)c(OC(F)(F)F)c3)c(=O)c2cc1F", "note": "[Example 87, 5-chloro-N-({[4-[7-fluoro-6-(methylamino)-1-oxoisoquinolin-2(1H)-yl]-2-(trifluoromethoxy)phenyl]amino}carbonyl)thiophene-2-sulfonamide]", "IC50": "< 10"},
      {"smiles": "CNc1cc2ccn(-c3ccc(NC(=O)NS(=O)(=O)c4ccc(Cl)s4)c(C(C)=O)c3)c(=O)c2cc1F", "note": "[Example 88, N-[({2-acetyl-4-[7-fluoro-6-(methylamino)-1-oxoisoquinolin-2(1H)-yl]phenyl}amino)carbonyl]-5-chlorothiophene-2-sulfonamide]", "IC50": "< 10"},
      {"smiles": "CNc1cc2ccn(-c3ccc(NC(=O)NS(=O)(=O)c4ccc(Cl)s4)c(OCC(F)(F)F)c3)c(=O)c2cc1F", "note": "[Example 89, 5-chloro-N-({[4-[7-fluoro-6-(methylamino)-1-oxoisoquinolin-2(1H)-yl]-2-(2,2,2-trifluoroethoxy)phenyl]amino}carbonyl)thiophene-2-sulfonamide]", "IC50": "< 10"},
      {"smiles": "CCOc1cc(-n2ccc3cc(NC)c(F)cc3c2=O)ccc1NC(=O)NS(=O)(=O)c1ccc(Cl)s1", "note": "[Example 90, 5-chloro-N-[({2-ethoxy-4-[7-fluoro-6-(methylamino)-1-oxoisoquinolin-2(1H)-yl]phenyl}amino)carbonyl]thiophene-2-sulfonamide]", "IC50": "< 10"},
      {"smiles": "CNc1cc2ccn(-c3ccc(NC(=O)NS(=O)(=O)c4ccc(Cl)s4)c(OCCOC)c3)c(=O)c2cc1F", "note": "[Example 91, 5-chloro-N-({[4-[7-fluoro-6-(methylamino)-1-oxoisoquinolin-2(1H)-yl]-2-(2-methoxyethoxy)phenyl]amino}carbonyl)thiophene-2-sulfonamide]", "IC50": "< 10"},
      {"smiles": "CNc1cc2ccn(-c3ccc(NC(=O)NS(=O)(=O)c4ccc(Cl)s4)c(C(C)C)c3)c(=O)c2cc1F", "note": "[Example 92, 5-chloro-N-[({4-[7-fluoro-6-(methylamino)-1-oxoisoquinolin-2(1H)-yl]-2-isopropylphenyl}amino)carbonyl]thiophene-2-sulfonamide]", "IC50": "10 to 30"}
    ]}
  ]
}
